Data reported in paper PMC10303271, “Synthesis and Receptor Binding Studies of α5 GABAAR Selective Novel Imidazodiazepines Targeted for Psychiatric and Cognitive Disorders” (Molecules, 2023).

Legend:
Alpha1A = molecular target: T1, Alpha1A (Homo sapiens, UniProt P35348); assay: PDSP primary binding Alpha1A; settings: 1.5 h; primary binding, 10,000 nM; last figure of the line = mean of the 4 before it; read-out: Alpha1A, PDSP raw data, mean
T1 construct: purchased NIMH Psychoactive Drug Screening Program (PDSP)
T1 sequence (P35348 1-466): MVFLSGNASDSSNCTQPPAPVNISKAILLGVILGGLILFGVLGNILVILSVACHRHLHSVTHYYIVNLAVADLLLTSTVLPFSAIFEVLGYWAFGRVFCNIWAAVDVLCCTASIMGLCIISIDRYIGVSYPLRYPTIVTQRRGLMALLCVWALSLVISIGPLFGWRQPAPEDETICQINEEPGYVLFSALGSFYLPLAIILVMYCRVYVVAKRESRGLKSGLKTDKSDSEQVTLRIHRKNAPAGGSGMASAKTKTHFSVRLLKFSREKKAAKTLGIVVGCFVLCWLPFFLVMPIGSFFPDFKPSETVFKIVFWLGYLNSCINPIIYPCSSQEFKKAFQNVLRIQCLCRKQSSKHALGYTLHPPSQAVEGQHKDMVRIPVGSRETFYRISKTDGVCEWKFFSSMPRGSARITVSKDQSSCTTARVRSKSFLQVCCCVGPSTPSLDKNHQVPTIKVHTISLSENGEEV
Protocol: (§1) To determine if any off-target receptor-binding effects are present, all the novel ligands were sent to the National Institute of Mental Health (NIMH), Psychoactive Drug Screening Program (PDSP). The ligands were screened over a panel of 47 receptors, ion channels, and transporters to determine any other possible interactions with […]. The hERG-binding was also determined. […] No binding of the test compounds to calcium channels was observed. […] It is necessary to screen the compounds for hERG-binding during the early process of drug discovery. The unintentional binding of many drugs to hERG can cause blockade of hERG K+ channels in the heart, which can cause many side effects including cardiac arrhythmias and sudden death. […] All of the α5 imidazodiazepines were tested for hERG-binding.
(§2) The NIMH PDSP assay protocol book [https://kidbdev.med.unc.edu/databases/PDSP%20Protocols%20II%202013-03-28.pdf accessed on 23 April 2023]. describes the protocols for primary and secondary radio-ligand binding assays. These assays were carried out in a final volume of 125 µL per well in the appropriate binding buffer.
(§3) The binding of a ligand to a receptor, ion channel, or transporter was determined in the […] of 10 µM of the appropriate reference compound. […] Plates were incubated in the dark for 90 min at rt, and the reactions were stopped by vacuum filtration onto 0.3% polyethyleneimine (PEI) soaked 96-well filter mats using a 96-well Filtermateharvester. This was followed by three washes with cold PBS buffer. Radioactivity was then counted on a Microbeta counter. Nonlinear regression was used to analyze the data with N = 6 replicates.

Alpha2A = molecular target: T2, Alpha2A (Homo sapiens, UniProt P08913); assay: PDSP primary binding Alpha2A; settings: 1.5 h; primary binding, 10,000 nM; last figure of the line = mean of the 4 before it; read-out: Alpha2A, PDSP raw data, mean
T2 construct: purchased NIMH Psychoactive Drug Screening Program (PDSP)
T2 sequence (P08913 1-465): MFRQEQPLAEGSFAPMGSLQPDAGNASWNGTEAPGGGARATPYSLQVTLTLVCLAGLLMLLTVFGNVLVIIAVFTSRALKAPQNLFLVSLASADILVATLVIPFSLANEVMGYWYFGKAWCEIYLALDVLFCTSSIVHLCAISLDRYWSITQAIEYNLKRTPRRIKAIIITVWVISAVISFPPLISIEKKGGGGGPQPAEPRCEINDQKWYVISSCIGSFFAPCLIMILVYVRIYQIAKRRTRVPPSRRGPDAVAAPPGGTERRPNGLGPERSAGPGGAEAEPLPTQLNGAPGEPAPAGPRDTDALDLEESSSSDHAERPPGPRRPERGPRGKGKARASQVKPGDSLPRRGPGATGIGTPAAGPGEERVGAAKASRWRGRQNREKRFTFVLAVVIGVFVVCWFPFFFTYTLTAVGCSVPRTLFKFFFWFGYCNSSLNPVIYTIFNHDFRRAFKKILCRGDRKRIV
Protocol: as §1, §2, §3

D3 = molecular target: T3, D3 (Homo sapiens, UniProt P35462); assay: PDSP primary binding D3; settings: 1.5 h; primary binding, 10,000 nM; last figure of the line = mean of the 4 before it; read-out: D3, PDSP raw data, mean
T3 construct: purchased NIMH Psychoactive Drug Screening Program (PDSP)
Protocol: as §1, §2, §3

H1 = molecular target: T4, H1 (Homo sapiens, UniProt P35367); assay: PDSP primary binding H1; settings: primary binding, 10,000 nM; last figure of the line = mean of the 4 before it; read-out: H1, PDSP raw data, mean
T4 construct: purchased NIMH Psychoactive Drug Screening Program (PDSP)
Protocol: as §1, §2, §3

M5 = molecular target: T5, M5 (Homo sapiens, UniProt P08912); assay: PDSP primary binding M5; settings: primary binding, 10,000 nM; last figure of the line = mean of the 4 before it; read-out: M5, PDSP raw data, mean
T5 construct: purchased NIMH Psychoactive Drug Screening Program (PDSP)
T5 sequence (P08912 1-532): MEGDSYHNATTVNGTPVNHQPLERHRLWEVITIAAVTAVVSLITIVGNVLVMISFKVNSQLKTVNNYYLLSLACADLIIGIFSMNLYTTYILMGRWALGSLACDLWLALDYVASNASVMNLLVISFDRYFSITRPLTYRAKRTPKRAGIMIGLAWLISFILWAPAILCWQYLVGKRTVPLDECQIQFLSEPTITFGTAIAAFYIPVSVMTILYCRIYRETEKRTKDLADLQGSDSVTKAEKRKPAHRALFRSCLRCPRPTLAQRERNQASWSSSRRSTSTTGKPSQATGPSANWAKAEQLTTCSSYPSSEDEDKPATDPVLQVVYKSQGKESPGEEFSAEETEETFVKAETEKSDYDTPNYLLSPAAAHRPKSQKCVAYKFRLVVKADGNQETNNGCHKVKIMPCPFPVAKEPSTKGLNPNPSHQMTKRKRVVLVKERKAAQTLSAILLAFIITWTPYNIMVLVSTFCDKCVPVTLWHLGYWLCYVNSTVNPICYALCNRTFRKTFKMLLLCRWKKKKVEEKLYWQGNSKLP
Protocol: as §1, §2, §3

Sigma 2 = assay: PDSP primary binding Sigma 2; settings: primary binding, 10,000 nM; last figure of the line = mean of the 4 before it
Protocol: as §1, §2, §3

Kainate (Rat Brain) = assay: PDSP primary binding Kainate (Rat Brain); settings: primary binding, 10,000 nM; last figure of the line = mean of the 4 before it
Protocol: as §1, §2, §3

NR2B = assay: PDSP primary binding NR2B; settings: primary binding, 10,000 nM; last figure of the line = mean of the 4 before it
Protocol: as §1, §2, §3

Alpha2Beta4 = molecular target: T6, Alpha2Beta4 (Rattus norvegicus, UniProt P12389+P12392); assay: PDSP primary binding Alpha2Beta4; settings: primary binding, 10,000 nM; last figure of the line = mean of the 4 before it; read-out: Alpha2Beta4, PDSP raw data, mean
T6 construct: purchased NIMH Psychoactive Drug Screening Program (PDSP)
Protocol: as §1, §2, §3

V2 = molecular target: T7, V2 (Homo sapiens, UniProt P30518); assay: PDSP primary binding V2; settings: primary binding, 10,000 nM; last figure of the line = mean of the 4 before it; read-out: V2, PDSP raw data, mean
T7 construct: purchased NIMH Psychoactive Drug Screening Program (PDSP)
Protocol: as §1, §2, §3

T6 sequence (P12389 28-511): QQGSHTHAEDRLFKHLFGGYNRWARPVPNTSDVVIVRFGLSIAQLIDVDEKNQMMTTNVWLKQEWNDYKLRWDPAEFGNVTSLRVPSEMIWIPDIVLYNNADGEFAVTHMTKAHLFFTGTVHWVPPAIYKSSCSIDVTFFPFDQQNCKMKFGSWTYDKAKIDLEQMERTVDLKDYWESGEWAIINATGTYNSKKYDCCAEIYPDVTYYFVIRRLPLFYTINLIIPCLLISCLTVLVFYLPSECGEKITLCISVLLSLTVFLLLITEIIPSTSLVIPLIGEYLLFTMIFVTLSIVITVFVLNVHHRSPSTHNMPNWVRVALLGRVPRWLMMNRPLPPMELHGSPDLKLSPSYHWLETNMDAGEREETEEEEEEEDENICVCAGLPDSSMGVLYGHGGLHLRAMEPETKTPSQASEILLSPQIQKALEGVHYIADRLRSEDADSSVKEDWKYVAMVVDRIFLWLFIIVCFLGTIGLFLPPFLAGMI
T6 sequence (P12392 21-495): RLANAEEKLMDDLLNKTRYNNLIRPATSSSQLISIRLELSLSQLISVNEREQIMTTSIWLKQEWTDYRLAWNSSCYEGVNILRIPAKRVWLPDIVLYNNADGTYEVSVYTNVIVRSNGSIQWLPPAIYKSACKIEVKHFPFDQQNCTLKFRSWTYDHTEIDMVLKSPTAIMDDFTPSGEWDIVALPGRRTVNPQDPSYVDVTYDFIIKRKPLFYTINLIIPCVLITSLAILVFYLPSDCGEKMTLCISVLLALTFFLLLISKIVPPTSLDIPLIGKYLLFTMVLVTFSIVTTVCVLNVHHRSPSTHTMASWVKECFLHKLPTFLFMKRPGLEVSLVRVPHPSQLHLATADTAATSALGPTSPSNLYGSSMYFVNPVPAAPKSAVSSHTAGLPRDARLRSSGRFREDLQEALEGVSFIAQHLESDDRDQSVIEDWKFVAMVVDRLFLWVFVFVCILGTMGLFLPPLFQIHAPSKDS
T7 sequence (P30518 whole entry): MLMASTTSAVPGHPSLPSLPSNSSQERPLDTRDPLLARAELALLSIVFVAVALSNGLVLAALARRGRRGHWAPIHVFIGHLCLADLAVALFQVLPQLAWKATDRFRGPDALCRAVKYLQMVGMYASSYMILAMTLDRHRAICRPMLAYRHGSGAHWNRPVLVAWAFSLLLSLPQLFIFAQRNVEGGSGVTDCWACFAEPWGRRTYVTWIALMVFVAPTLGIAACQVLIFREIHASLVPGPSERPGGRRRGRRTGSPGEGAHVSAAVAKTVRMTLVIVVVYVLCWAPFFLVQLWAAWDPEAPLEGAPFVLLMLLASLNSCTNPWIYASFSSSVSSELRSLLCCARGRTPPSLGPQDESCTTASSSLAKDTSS
T4 sequence (P35367 whole entry): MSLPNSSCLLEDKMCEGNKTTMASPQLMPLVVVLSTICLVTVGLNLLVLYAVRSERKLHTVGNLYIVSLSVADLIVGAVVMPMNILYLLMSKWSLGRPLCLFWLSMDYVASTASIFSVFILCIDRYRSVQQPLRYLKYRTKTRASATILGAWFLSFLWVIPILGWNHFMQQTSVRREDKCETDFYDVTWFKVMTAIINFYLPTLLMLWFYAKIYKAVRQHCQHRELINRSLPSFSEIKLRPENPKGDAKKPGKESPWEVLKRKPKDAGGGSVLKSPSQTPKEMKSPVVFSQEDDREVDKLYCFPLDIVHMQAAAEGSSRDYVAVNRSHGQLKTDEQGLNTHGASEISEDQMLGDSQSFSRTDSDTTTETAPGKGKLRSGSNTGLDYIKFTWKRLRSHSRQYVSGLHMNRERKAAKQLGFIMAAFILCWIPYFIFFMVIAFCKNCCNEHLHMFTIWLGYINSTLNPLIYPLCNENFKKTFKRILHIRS
T3 sequence (P35462 whole entry): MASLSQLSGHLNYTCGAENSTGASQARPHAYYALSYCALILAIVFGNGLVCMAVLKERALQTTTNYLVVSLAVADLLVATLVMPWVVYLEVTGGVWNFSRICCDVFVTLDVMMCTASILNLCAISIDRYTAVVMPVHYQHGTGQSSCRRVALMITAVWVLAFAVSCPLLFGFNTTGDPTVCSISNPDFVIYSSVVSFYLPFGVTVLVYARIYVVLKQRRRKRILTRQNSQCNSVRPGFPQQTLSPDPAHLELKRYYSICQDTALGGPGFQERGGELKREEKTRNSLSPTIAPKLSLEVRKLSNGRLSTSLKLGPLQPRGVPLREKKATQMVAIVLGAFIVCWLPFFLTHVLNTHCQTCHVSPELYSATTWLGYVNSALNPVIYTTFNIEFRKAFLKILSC

SMILES	inhibition at 10 µM (Alpha1A)	inhibition at 10 µM (Alpha2A)	inhibition at 10 µM (D3)	inhibition at 10 µM (H1)	inhibition at 10 µM (M5)	Sigma 2, PDSP raw data, mean (Sigma 2)	Kainate (Rat Brain), PDSP raw data, mean (Kainate (Rat Brain))	NR2B, PDSP raw data, mean (NR2B)	inhibition at 10 µM (Alpha2Beta4)	inhibition at 10 µM (V2)
C[C@H]1N=C(c2ccccc2F)c2cc(-c3ccccc3)ccc2-n2cnc(C(=O)N(C)C)c21 [Compound 5, (R)-6-(2′-Fluorophenyl)-N,N,4-trimethyl-8-phenyl-4H-benzo[f]imidazo[1,5-a][1,4]diazepine-3-carboxamide]	-4.47%	5.99%	-3.57%	-10.4%	-0.76%	43.63%	3.43%	3.79%	4.82%	19.7%
C#Cc1ccc2c(c1)C(c1ccccc1Cl)=N[C@H](C)c1c(C(=O)NC)ncn1-2 [Compound 21, (R)-6-(2′-Chlorophenyl)-8-ethynyl-N,4-dimethyl-4H-benzo[f]imidazo[1,5-a][1,4]diazepine-3-carboxamide]	-5.44%	-1.1%	6.19%	-9.7%	-8.03%	1.04%	-4.58%	-8.82%	7.67%	43%
C#Cc1ccc2c(c1)C(c1ccccn1)=N[C@@H](C)c1c(C(=O)NC)ncn1-2 [Compound 23, (S)-8-Ethynyl-N,4-dimethyl-6-(pyridin-2′-yl)-4H-benzo[f]imidazo[1,5-a][1,4]diazepine-3-carboxamide]	-5.28%	5.8%	7.31%	-2.54%	-13.6%	8.85%	37.08%	-22.69%	4.5%	10.2%
C#Cc1ccc2c(c1)C(c1ccccc1Cl)=N[C@H](C)c1c(C(=O)N(C)CC)ncn1-2 [Compound 29]	4.97%	7.96%	13%	-1.99%	-17.5%	13.69%	16.79%	-14.08%	3.06%	21.9%
C#Cc1ccc2c(c1)C(c1ccccn1)=N[C@@H](C)c1c(C(=O)N(C)C)ncn1-2 [Compound 31, (S)-8-Ethynyl-N,N,4-trimethyl-6-(pyridin-2′-yl)-4H-benzo[f]imidazo[1,5-a][1,4]diazepine-3-carboxamide]	-10.5%	-7.15%	1.06%	-7.38%	-11.8%	-12.63%	23.99%	-10.18%	6.58%	15.4%
C#Cc1ccc2c(c1)C(c1ccccc1F)=N[C@H](C)c1c(C(=S)N(C)C)ncn1-2 [Compound 33, (R)-8-Ethynyl-6-(2′-fluorophenyl)-N,N,4-trimethyl-4H-benzo[f]imidazo[1,5-a][1,4]diazepine-3-carbothioamide]	-4.47%	5.99%	-3.57%	-10.4%	-0.76%	43.63%	3.43%	3.79%	4.82%	19.7%
CCc1noc(-c2ncn3c2[C@@H](C)N=C(c2ccccc2F)c2cc(-c4ccccc4)ccc2-3)n1 [Compound 35, (R)-3-Ethyl-5-(6-(2′-fluorophenyl)-4-methyl-8-phenyl-4H-benzo[f]imidazo[1,5-a][1,4]diazepin-3-yl)-1,2,4-oxadiazole]	20.8%	34.5%	16.2%	10.5%	-7.39%	85.36%	33.32%	24.81%	10.7%	37.4%
CCc1noc(-c2ncn3c2[C@@H](C)N=C(c2ccccc2F)c2cc(Cl)ccc2-3)n1 [Compound 36, (R)-5-(8-Chloro-6-(2′-fluorophenyl)-4-methyl-4H-benzo[f]imidazo[1,5-a][1,4]diazepin-3-yl)-3-ethyl-1,2,4-oxadiazole]	-0.34%	-14.4%	4.97%	7.7%	-10.7%	81.41%	42.86%	14.42%	10.9%	12.6%
CC(C)c1noc(-c2ncn3c2[C@@H](C)N=C(c2ccccc2F)c2cc(Cl)ccc2-3)n1 [Compound 37, (R)-5-(8-Chloro-6-(2′-fluorophenyl)-4-methyl-4H-benzo[f]imidazo[1,5-a][1,4]diazepin-3-yl)-3-isopropyl-1,2,4-oxadiazole]	-8.38%	22.8%	-0.7%	59%	-4.88%	76.17%	35.39%	34.46%	-5.48%	-7.17%
